Assay results as given in the Deep4Chem optical property database.

Assay: solvent given as SMILES

With `COC(=O)c1ccc(-c2ccc3c(c2)C(=O)c2cc(-c4ccc(C(=O)OC)cc4)ccc2-3)cc1` the absorption maximum (in C1CCOC1) was 342 nm.

Compound `N#CC(C#N)=Cc1ccc(-c2ccc(N(c3ccccc3)c3ccccc3)cc2)o1` has an absorption maximum (in ClC(Cl)Cl) of 509 nm.

`CS1(C)C(/C=C/C2=C(c3ccc(C(=O)O)cc3)C(=C/C=C3/N(CCCCS(=O)(=O)[O-])c4ccccc4S3(C)C)/CCC2)=[N+](CCCCS(=O)(=O)[O-])c2ccccc21` showed an absorption maximum (in CO) of 800 nm.

With `Cc1ccc(O)c(-c2nc(C)c3n2CCCC3)c1` the absorption maximum (in ClCCl) was 321 nm.

Work on `C(#Cc1ccccc1)C(C#Cc1ccccc1)=Cc1ccc(C=C(C#Cc2ccccc2)C#Cc2ccccc2)s1` yielded an absorption maximum (in ClC(Cl)Cl) of 468 nm.

`CCCCC1C(=O)c2cc(Oc3ccc(C(C)(C)C)cc3)c3c4c(Oc5ccc(C(C)(C)C)cc5)cc5c6c(cc(Oc7ccc(C(C)(C)C)cc7)c(c7c(Oc8ccc(C(C)(C)C)cc8)cc(c2c37)C1=O)c64)C1=C(C5=O)c2ccc3ccccc3[n+]2[B-](F)(F)O1` (stereo not drawn) showed an absorption maximum (in ClCCl) of 616 nm.

`O=C1[C@@H]2[C@H](C(=O)N1c1ccc3cc4ccccc4cc3c1)[C@@H]1C=C[C@H]2C1` gave an absorption maximum (in ClC(Cl)Cl) of 380 nm.

For `COC(=O)/C(C#N)=C/c1cn(-c2ccccc2)nc1-c1ccc([N+](=O)[O-])cc1`, the absorption maximum (in C1CCOC1) was 333 nm, the absorption maximum (in C1COCCO1) was 333 nm and the absorption maximum (in CCO) was 335 nm. It also gave an absorption maximum (in CCOC(C)=O) of 330 nm, an absorption maximum (in CN(C)C=O) of 330 nm and an absorption maximum (in CO) of 330 nm. The absorption maximum (in CS(C)=O) was 330 nm, the absorption maximum (in Cc1ccccc1) was 347 nm and the absorption maximum (in ClC(Cl)Cl) was 339 nm.

For `c1ccc(-c2nn(-c3ccccc3)c3nc4ccc(-n5c6ccccc6c6ccccc65)cc4cc23)cc1`, the absorption maximum (in C1CCCCC1) was 419.11 nm, the absorption maximum (in C1CCOC1) was 414.94 nm and the absorption maximum (in CC#N) was 411.02 nm. It also gave an absorption maximum (in CC(C)=O) of 412.03 nm, an absorption maximum (in CCCCCl) of 415.97 nm and an absorption maximum (in CCCCOCCCC) of 418.06 nm. It also gave an absorption maximum (in CN(C)C=O) of 414.94 nm.

For `CC[n+]1c(/C=C/c2c([O-])ccc3ccc(=O)oc23)sc2ccccc21`, the absorption maximum (in C1CCOC1) was 607.14 nm, the absorption maximum (in CC#N) was 579.15 nm and the absorption maximum (in CC(C)=O) was 590.56 nm. The absorption maximum (in CO) was 519.07 nm, the absorption maximum (in CS(C)=O) was 581.28 nm and the absorption maximum (in Cc1ccccc1) was 623.57 nm. It also gave an absorption maximum (in ClC(Cl)Cl) of 593.91 nm, an absorption maximum (in ClCCl) of 597.56 nm and an absorption maximum (in O) of 492.76 nm.

Work on `c1ccc(-c2nc(-c3c4ccccc4cc4ccccc34)n3ccccc23)cc1` yielded an absorption maximum (in C1CCCCC1) of 375 nm, an absorption maximum (in CC#N) of 375 nm and an absorption maximum (in CO) of 366 nm. It also gave an absorption maximum (in ClCCl) of 382 nm and an absorption maximum (in O) of 375 nm.

Compound `CCCCOc1cc(C=C2c3ccccc3-c3ccccc32)c(OCCCC)cc1C=C1c2ccccc2C=Cc2ccccc21` has an absorption maximum (in C1CCOC1) of 395 nm.

Compound `COC(=O)c1[nH]c(-c2ccc([N+](=O)[O-])cc2)c2nnc3ccc(OC)cc3c12` has an absorption maximum (in ClCCl) of 436 nm.

`COc1ccc(-c2cc3c(ccc(=O)n3C)s2)cc1` gave an absorption maximum (in CC#N) of 376 nm and an absorption maximum (in ClCCl) of 378 nm.

`Cc1cccc(-c2c3ccccc3cc3ccccc23)n1` showed an absorption maximum (in ClCCl) of 385 nm.

`CN(C)c1ccc2c(c1)[Si](C)(C)C1=CC(=[N+](C)C)C=CC1=C2C#Cc1ccccc1` showed an absorption maximum (in CO) of 712 nm and an absorption maximum (in O) of 712 nm.

`Fc1ccccc1-c1nc2sc3ccccc3c2s1` showed an absorption maximum (in CS(C)=O) of 344 nm.

`N#Cc1c(C#N)c2cc(Br)ccc2c2ccc(Br)cc12` showed an absorption maximum (in ClC(Cl)Cl) of 350 nm.

For `CC(=O)c1c2c(cc3c(N(C)C)cccc13)CCC2`, the absorption maximum (in C1CCCCC1) was 314 nm, the absorption maximum (in C1CCOC1) was 330 nm and the absorption maximum (in C1COCCO1) was 319 nm. For the same compound, the absorption maximum (in CC#N) was 316 nm, the absorption maximum (in CCO) was 334 nm and the absorption maximum (in CS(C)=O) was 334 nm. The absorption maximum (in Cc1ccccc1) was 322 nm, the absorption maximum (in ClC(Cl)Cl) was 334 nm and the absorption maximum (in ClCCl) was 334 nm.

`Cc1cc2nc3[nH]c(=O)[nH]c(=O)c3nc2cc1C` gave an absorption maximum (in CC#N) of 380 nm.

`Brc1cnc(-c2ccncc2)s1` gave an absorption maximum (in CO) of 306 nm.

`F[B-]1(F)n2c(c3cccc4cccc2c43)=Nc2ccc3ccccc3[n+]21` showed an absorption maximum (in C1CCOC1) of 486 nm, an absorption maximum (in CC#N) of 481 nm and an absorption maximum (in CCCCCC) of 490 nm. It also gave an absorption maximum (in Cc1ccccc1) of 490 nm and an absorption maximum (in ClCCl) of 455 nm.

`N#Cc1ccc(C=C(c2ccccc2)c2ccccc2)cc1` gave an absorption maximum (in C1CCOC1) of 321 nm.

Work on `[C-]#[N+]c1ccc(-c2ccc(N)cc2)cc1` yielded an absorption maximum (in C1CCCCC1) of 302 nm, an absorption maximum (in C1CCOC1) of 319 nm and an absorption maximum (in C1COCCO1) of 315 nm. The absorption maximum (in CC#N) was 310 nm, the absorption maximum (in CC(C)=O) was 329 nm and the absorption maximum (in CCCCCC) was 301 nm. For the same compound, the absorption maximum (in CCOC(C)=O) was 315 nm, the absorption maximum (in CN(C)C=O) was 314 nm and the absorption maximum (in CO) was 308 nm. For the same compound, the absorption maximum (in CS(C)=O) was 318 nm, the absorption maximum (in Cc1ccccc1) was 310 nm and the absorption maximum (in ClC(Cl)Cl) was 305 nm. For the same compound, the absorption maximum (in ClCCl) was 307 nm, the absorption maximum (in O) was 298 nm and the absorption maximum (in c1ccncc1) was 325 nm.
